Results: the supplement of paper PMC11208160

Test: recombinant barcode read abundance after kanamycin selection (control-corrected) (log10(CPM+1)); higher = more efficient recombination; sequences stand for … in AGTGCAGAGAAAATCGGCCAGTTTTCTCTGCCTGCAGTCCGCATGCCGT…AGATTTATGCAGCGGACTGCCTTTCTCCCAAAGTGATAAACCGGACAGTATCATGGACCGGTTTTCCCGGTAATCCGTATTTGCAAGGTTGGTTTCACT; site = the 11-nt target
How it was run: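 Recombination efficiency draws on barcodes counted at recombinant junctions in a pooled E. coli screen of targets paired with IS621 bridge RNA target-binding loops. The counts were converted to counts per million, averaged and corrected against the chloramphenicol/ampicillin LB agar control, then reported as log10(CPM+1). Selection plates held chloramphenicol/ampicillin/kanamycin with 0.1 mM IPTG, with two replicates per condition.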
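Also: IS621 recombinase and bridge RNA in Escherichia coli cells.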

Sequence | recombinant barcode read abundance (log10)
CTATGTGCTTGGGTTCTAACCTGTTGCGT (site CTATGTGCTAT) | 0.298
CTATTCCCTTGGGTTCTAACCTGTTGCCT (site CTATTCACTAG) | 0.1
CTATTCCCTTGGGTTCTAACCTGTTGCCT (site CTATTCCCTAG) | 1.52
CTATTCCCTTGGGTTCTAACCTGTTGCCT (site CTATTCGCTAG) | 0.286
CTATTCCCTTGGGTTCTAACCTGTTGCCT (site CTATTCTCTAG) | 0.483
CTATTGTCTTGGGTTCTAACCTGTTGCGG (site CTATTGTCTAC) | 0.714
CTATTGTCTTGGGTTCTAACCTGTTGCGG (site CTATTGTCTCC) | 1.35
CTATTGTCTTGGGTTCTAACCTGTTGCGG (site CTATTGTCTGC) | 0.249
CTATTGTCTTGGGTTCTAACCTGTTGCGG (site CTATTGTCTTC) | 0.17
CTCAATACTTGGGTTCTAACCTGTTGCGA (site CTCAATACTTC) | 1.15
CTCAATACTTGGGTTCTAACCTGTTGCGA (site CTCAATTCTTT) | 0.0435
CTCAGACCTTGGGTTCTAACCTGTTGCTG (site CTCAGACCTCA) | 0.037
CTCAGACCTTGGGTTCTAACCTGTTGCTG (site TCACACACTAG) | 0.463
CTCATATCTTGGGTTCTAACCTGTTGCCA (site CTAATATCTTG) | 0.0804
CTCATATCTTGGGTTCTAACCTGTTGCCA (site CTCATATCTTG) | 0.162
CTCCAGACTTGGGTTCTAACCTGTTGCAG (site CTCCAGACTCT) | 1.87
CTCCAGACTTGGGTTCTAACCTGTTGCAG (site CTGCAGACTCG) | 0.0775
CTCCAGGCTTGGGTTCTAACCTGTTGCGG (site CTCAAGGCTAC) | 0.427
CTCCAGGCTTGGGTTCTAACCTGTTGCGG (site CTCCAGGCTCC) | 1.55
CTCCGAACTTGGGTTCTAACCTGTTGCTT (site CTCCGAACTAA) | 0.144
CTCCGAACTTGGGTTCTAACCTGTTGCTT (site CTCCGTACTAT) | 0.0428
CTCCGACCTTGGGTTCTAACCTGTTGCTT (site CTCCGACCTAA) | 1.67
CTCCGACCTTGGGTTCTAACCTGTTGCTT (site CTCCGCCCTAA) | 0.0228
CTCCGACCTTGGGTTCTAACCTGTTGCTT (site CTCCGGCCTAA) | 0.327
CTCCGACCTTGGGTTCTAACCTGTTGCTT (site CTCCGTCCTAA) | 0.103
CTCCGAGCTTGGGTTCTAACCTGTTGCTA (site CTCCGAGCTTA) | 0.0161

Sequence | recombinant barcode read abundance (log10)
CTCCGAGCTTGGGTTCTAACCTGTTGCTA (site CTCCTAGCTAA) | 0.00807
CTCGACACTTGGGTTCTAACCTGTTGCTG (site CTCGACACTCA) | 1.6
CTCGACACTTGGGTTCTAACCTGTTGCTG (site CTCTACACTCA) | 0.191
CTCGCTACTTGGGTTCTAACCTGTTGCTT (site CTCGATACTAA) | 0.0927
CTCGCTACTTGGGTTCTAACCTGTTGCTT (site CTCGCTACTAA) | 0.264
CTCGCTCCTTGGGTTCTAACCTGTTGCCA (site CTCGCTCCTTG) | 0.275
CTCGCTCCTTGGGTTCTAACCTGTTGCCA (site GAAAAGTCTCA) | 0.113
CTCGGAACTTGGGTTCTAACCTGTTGCAT (site CTCGGAACTAT) | 1.86
CTCGGAACTTGGGTTCTAACCTGTTGCAT (site CTGGGAACTCT) | 0.00945
CTCGGGCCTTGGGTTCTAACCTGTTGCCT (site ATCGGGCCTAG) | 0.0932
CTCGGGCCTTGGGTTCTAACCTGTTGCCT (site CTCGGGCCTAG) | 0.144
CTCGGGCCTTGGGTTCTAACCTGTTGCCT (site GTCGGGCCTAG) | 0.0296
CTCGGGCCTTGGGTTCTAACCTGTTGCCT (site TTCGGGCCTAG) | 0.0756
CTCGTTACTTGGGTTCTAACCTGTTGCCT (site CTCGTAACTAG) | 0.0393
CTCGTTACTTGGGTTCTAACCTGTTGCCT (site CTCGTCACTAG) | 0.112
CTCGTTACTTGGGTTCTAACCTGTTGCCT (site CTCGTGACTAG) | 0.0469
CTCGTTACTTGGGTTCTAACCTGTTGCCT (site CTCGTTACTAG) | 0.682
CTCGTTGCTTGGGTTCTAACCTGTTGCCT (site ATCGTTGCTAG) | 0.0725
CTCGTTGCTTGGGTTCTAACCTGTTGCCT (site CTCGTTGCTAG) | 0.519
CTCGTTGCTTGGGTTCTAACCTGTTGCCT (site GTCGTTGCTAG) | 0.0989
CTCGTTGCTTGGGTTCTAACCTGTTGCCT (site TTCGTTGCTAG) | 0.0838
CTCTAGTCTTGGGTTCTAACCTGTTGCAT (site CTCTAGTCTAA) | 0.545
CTCTAGTCTTGGGTTCTAACCTGTTGCAT (site CTCTAGTCTAC) | 0.263
CTCTAGTCTTGGGTTCTAACCTGTTGCAT (site CTCTAGTCTAG) | 0.109
CTCTAGTCTTGGGTTCTAACCTGTTGCAT (site CTCTAGTCTAT) | 1.8
CTCTAGTCTTGGGTTCTAACCTGTTGCGT (site CTCTAGTCTAA) | 0.268

Sequence | recombinant barcode read abundance (log10)
CTCTAGTCTTGGGTTCTAACCTGTTGCGT (site CTCTAGTCTAC) | 2.54
CTCTAGTCTTGGGTTCTAACCTGTTGCGT (site CTCTAGTCTAG) | 0.125
CTCTAGTCTTGGGTTCTAACCTGTTGCGT (site CTCTAGTCTAT) | 1.79
CTCTCAGCTTGGGTTCTAACCTGTTGCGA (site CTCTAAACTTC) | 0.15
CTCTCAGCTTGGGTTCTAACCTGTTGCGA (site CTCTCAGCTTC) | 0.549
CTCTCCACTTGGGTTCTAACCTGTTGCCA (site CTCTCCACTTG) | 0.138
CTCTCCACTTGGGTTCTAACCTGTTGCCA (site CTCTCGACTTG) | 0.0411
CTCTCCGCTTGGGTTCTAACCTGTTGCCT (site CTCTCCGCTAG) | 0.77
CTCTCCGCTTGGGTTCTAACCTGTTGCCT (site CTCTCCTCTAG) | 0.0931
CTCTCGACTTGGGTTCTAACCTGTTGCCA (site CTCTCCACTTG) | 0.0478
CTCTCGACTTGGGTTCTAACCTGTTGCCA (site CTCTCGACTTG) | 0.328
CTCTCGTCTTGGGTTCTAACCTGTTGCAT (site CTCTCGTCTAA) | 0.0866
CTCTCGTCTTGGGTTCTAACCTGTTGCAT (site CTCTCGTCTAC) | 0.08
CTCTCGTCTTGGGTTCTAACCTGTTGCAT (site CTCTCGTCTAG) | 0.0361
CTCTCGTCTTGGGTTCTAACCTGTTGCAT (site CTCTCGTCTAT) | 1.45
CTCTCGTCTTGGGTTCTAACCTGTTGCGG (site CTCTCGTCTCC) | 1.16
CTCTCGTCTTGGGTTCTAACCTGTTGCGG (site GGACGTGCTAG) | 0.127
CTCTGGACTTGGGTTCTAACCTGTTGCTT (site CTCTGGACTAA) | 1.13
CTCTGGACTTGGGTTCTAACCTGTTGCTT (site CTCTTGACTAA) | 0.0289
CTCTTCGCTTGGGTTCTAACCTGTTGCCT (site CTCTTCACTCG) | 0.208
CTCTTCGCTTGGGTTCTAACCTGTTGCCT (site CTCTTCGCTAG) | 0.314
CTGAAGCCTTGGGTTCTAACCTGTTGCCT (site ATGAAGCCTAG) | 0.0394
CTGAAGCCTTGGGTTCTAACCTGTTGCCT (site CTGAAGCCTAG) | 1.74
CTGAAGCCTTGGGTTCTAACCTGTTGCCT (site GTGAAGCCTAG) | 0.386
CTGAAGCCTTGGGTTCTAACCTGTTGCCT (site TTGAAGCCTAG) | 0.409
